Data published in PMC9090415, “Discovery of small molecule inhibitors of Plasmodium falciparum apicoplast DNA polymerase” (Journal of Enzyme Inhibition and Medicinal Chemistry, 2022).

Target: P. falciparum apicoplast DNA polymerase (Pf-apPOL) (Plasmodium falciparum, UniProt Q8ILY1)
Test: Fluorescence-based high-throughput DNA polymerase assay (molecular beacon), primary screen and dose-response
Assay type: biochemical
Details: for DNA Pol: 90 min, 10 µM
Summary of the method: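 Single-point screening used 10 µM compound with 20 nM polymerase, 20 nM hairpin substrate and 6 µM dNTPs for 90 min at 25 °C. Confirmatory titrations (2.5–80 µM) followed fluorescence at three times, and IC50 was derived from a fit including a cooperativity term n.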

P. falciparum apicoplast DNA polymerase (Pf-apPOL), sequence (Q8ILY1 entry or part of it): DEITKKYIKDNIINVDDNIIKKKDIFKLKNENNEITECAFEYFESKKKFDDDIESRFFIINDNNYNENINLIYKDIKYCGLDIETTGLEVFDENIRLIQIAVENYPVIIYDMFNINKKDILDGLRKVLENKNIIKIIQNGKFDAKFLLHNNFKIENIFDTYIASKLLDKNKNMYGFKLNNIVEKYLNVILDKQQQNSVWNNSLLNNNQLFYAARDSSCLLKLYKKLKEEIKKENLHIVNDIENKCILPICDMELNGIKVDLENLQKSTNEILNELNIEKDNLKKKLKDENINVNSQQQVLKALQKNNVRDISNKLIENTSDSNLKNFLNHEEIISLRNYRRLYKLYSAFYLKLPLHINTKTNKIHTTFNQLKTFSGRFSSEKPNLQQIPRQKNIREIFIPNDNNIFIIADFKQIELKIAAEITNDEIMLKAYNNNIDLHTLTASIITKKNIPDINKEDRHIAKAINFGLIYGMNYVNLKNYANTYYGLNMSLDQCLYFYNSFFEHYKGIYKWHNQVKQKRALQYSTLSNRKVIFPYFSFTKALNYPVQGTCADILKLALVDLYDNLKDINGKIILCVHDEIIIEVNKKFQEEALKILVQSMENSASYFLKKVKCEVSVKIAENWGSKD

In the case of `O=[N+]([O-])c1cc2c(cc1CN1CCN(c3cccc(Cl)c3)CC1)OCO2` [KU0005610], the “DNA Pol” value ('DNA Pol', screening value, unit not given) is reported as 40, the “% inhibition Apo pol 10'” value (DRC-1, concentration 2.5) is reported as 13.4536% and the “% inhibition Apo pol 10'” value (DRC-1, concentration 5) is reported as 19.449%. The “% inhibition Apo pol 10'” value (DRC-1, concentration 10) was 35.0383%, the “% inhibition Apo pol 10'” value (DRC-1, concentration 20) was 58.0522% and the “% inhibition Apo pol 10'” value (DRC-1, concentration 40) was 81.6045%. For the same compound, the “% inhibition Apo pol 10'” value (DRC-1, concentration 80) was 82.8557%, the “% inhibition Apol 90'” value (DRC-1, 90', concentration 2.5) was 0.2927% and the “% inhibition Apol 90'” value (DRC-1, 90', concentration 5) was 2.869%. The “% inhibition Apol 90'” value (DRC-1, 90', concentration 10) was 13.5382%, the “% inhibition Apol 90'” value (DRC-1, 90', concentration 20) was 40.3549% and the “% inhibition Apol 90'” value (DRC-1, 90', concentration 40) was 64.8091%. The “% inhibition Apol 90'” value (DRC-1, 90', concentration 80) was 60.8313%, the “% inhibition apPOL 180'” value (DRC-1, 180', concentration 2.5) was -5.629% and the “% inhibition apPOL 180'” value (DRC-1, 180', concentration 5) was -4.543%. For the same compound, the “% inhibition apPOL 180'” value (DRC-1, 180', concentration 10) was 2.609%, the “% inhibition apPOL 180'” value (DRC-1, 180', concentration 20) was 32.6998% and the “% inhibition apPOL 180'” value (DRC-1, 180', concentration 40) was 54.6533%. For the same compound, the “% inhibition apPOL 180'” value (DRC-1, 180', concentration 80) was 41.754%, the “% inhibition Apo pol 5'” value (DRC-2, 5', concentration 2.5) was 6% and the “% inhibition Apo pol 5'” value (DRC-2, 5', concentration 5) was 11%. The “% inhibition Apo pol 5'” value (DRC-2, 5', concentration 10) was 25%, the “% inhibition Apo pol 5'” value (DRC-2, 5', concentration 20) was 34% and the “% inhibition Apo pol 5'” value (DRC-2, 5', concentration 40) was 45%. For the same compound, the “% inhibition Apo pol 5'” value (DRC-2, 5', concentration 80) was 49%, the “% inhibition Apol 40'” value (DRC-2, 40', concentration 2.5) was 2.55% and the “% inhibition Apol 40'” value (DRC-2, 40', concentration 5) was 6.48%. For the same compound, the “% inhibition Apol 40'” value (DRC-2, 40', concentration 10) was 18%, the “% inhibition Apol 40'” value (DRC-2, 40', concentration 20) was 28% and the “% inhibition Apol 40'” value (DRC-2, 40', concentration 40) was 49%. For the same compound, the “% inhibition Apol 40'” value (DRC-2, 40', concentration 80) was 61%, the “% inhibition ApPOL 90'” value (DRC-2, 90', concentration 2.5) was -0.242% and the “% inhibition ApPOL 90'” value (DRC-2, 90', concentration 5) was 1.42%. The “% inhibition ApPOL 90'” value (DRC-2, 90', concentration 10) was 11%, the “% inhibition ApPOL 90'” value (DRC-2, 90', concentration 20) was 20% and the “% inhibition ApPOL 90'” value (DRC-2, 90', concentration 40) was 45%. The “% inhibition ApPOL 90'” value (DRC-2, 90', concentration 80) was 61%, the “% inhibition apPOL 180'” value (DRC-2, 180', concentration 2.5) was -7.6% and the “% inhibition apPOL 180'” value (DRC-2, 180', concentration 5) was -5.3%. The “% inhibition apPOL 180'” value (DRC-2, 180', concentration 10) was 2.12%, the “% inhibition apPOL 180'” value (DRC-2, 180', concentration 20) was 7% and the “% inhibition apPOL 180'” value (DRC-2, 180', concentration 40) was 32%. The “% inhibition apPOL 180'” value (DRC-2, 180', concentration 80) was 53%, the “% inhibition Apo pol 5'” value (conc 5 (unit not given), 5', DRC-2) was 11% and the “% inhibition ApPOL 90'” value (conc 10 (unit not given), 90', DRC-2) was 11%. The “% inhibition Apo pol 5'” value (conc 40 (unit not given), 5', DRC-2) was 45%, the “% inhibition Apol 40'” value (conc 40 (unit not given), 40', DRC-2) was 49% and the “% inhibition ApPOL 90'” value (conc 40 (unit not given), 90', DRC-2) was 45%. For the same compound, the “% inhibition Apo pol 5'” value (conc 80 (unit not given), 5', DRC-2) was 49%, the “% inhibition Apol 40'” value (conc 80 (unit not given), 40', DRC-2) was 61% and the “% inhibition ApPOL 90'” value (conc 80 (unit not given), 90', DRC-2) was 61%. For the same compound, the “DNA Pol” value (primary screen hit value, DNA Pol (186 hits)) was 40.
